Test results reported in patent US5332818A, “Immunosuppressive agent and process of producing the same” (Toray Industries, Inc., priority 1989, dated 1994).

Key:
[1] = in words; cited from earlier work
[2] = in words; cited from earlier work; remark: listed apart in the source
[3] = molecular target: T1, κ receptor (Cavia porcellus, UniProt P41144); experiment: Antagonism of EKC (κ) in electrically stimulated isolated organ; assay type: cell-based, Guinea pig; settings: for concentration dependency of antagonistic activity: κ receptor, FIGS. 1 and 2; for Slope / γ / Kb: κ, in vitro; for Kb: NLI value is mean ± S.E., read-out: pA2 (50% Confidence Limit) (converted)
T1 construct: from tissue; host or cells: guinea pig ileum, isolated, electrically stimulated
T1 sequence (P41144 whole entry): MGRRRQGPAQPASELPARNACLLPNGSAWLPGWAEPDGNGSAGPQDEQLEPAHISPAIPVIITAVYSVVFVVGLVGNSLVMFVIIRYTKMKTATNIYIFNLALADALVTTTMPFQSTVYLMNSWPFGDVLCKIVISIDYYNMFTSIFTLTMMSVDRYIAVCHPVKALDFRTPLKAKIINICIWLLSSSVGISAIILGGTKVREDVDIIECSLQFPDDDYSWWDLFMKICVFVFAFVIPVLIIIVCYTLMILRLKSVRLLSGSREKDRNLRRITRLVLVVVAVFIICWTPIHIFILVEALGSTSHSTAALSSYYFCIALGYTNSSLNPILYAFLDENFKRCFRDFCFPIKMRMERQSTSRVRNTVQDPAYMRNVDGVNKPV
Procedure: (§1) The term "δ-opioid antagonist" herein used-means a group of compounds which suppress the inhibition by DADLE or DPDPE of contraction of MVD specimen caused by electric stimulation.
(§2) Ke=[antagonist]/(IC50 ratio -1)
(§3) The IC50 ratio used herein is the value obtained by dividing the IC50 of an agonist, which is measured in the presence of an antagonist, with the IC50 value of the […], that is measured in the absence of the antagonist. Ke value is a value which is introduced for compensating the concentration of antagonist when comparing the IC50 ratio. Thus, the smaller the Ke value, the stronger the antagonist activity.
(§4) The antagonistic activities of the naloxindole hydrochloride and the naltrindole methanesulfonic acid salt obtained in Examples 1 and 3 were determined by the following method:
(§5) Guinea pig ileum (containing μ and κ receptors) and mouse vas deferens were taken out and the organs were subjected to electric stimulations. The activities of the compounds for inhibiting the suppression of contraction of the organs by three agonists, that is, morphine (μ), EKC (κ) and DADLE (δ) were measured.

[4] = test system: spleen cells; experiment: Suppression of MLR reaction; assay type: cell-based, mouse (C57BL/6 and mitomycin-treated Balb/c); settings: for inhibition at 1 µg/mL / inhibition at 10 µg/mL / inhibition at 50 µg/mL: Mus musculus, 72 hours, 3 cases, NTI, NTB, NLI as hydrochloric acid salt, read-out: Suppression Rate of MLR Reaction; for inhibition at 1 µg/mL: 1 μg/ml; for inhibition at 10 µg/mL: 10 μg/ml; for inhibition at 50 µg/mL: 50 μg/ml; for MLR reaction: in words, hydrochloric acid salts
Procedure: If spleen cells from two different lines of mouse which are genetically different, the spleen cells recognize the other type of cells, and the cells are divided and proliferated (MLR reaction).
In this system, hydrochloric acid salt of NTI, NTB or NLI, or for comparison, cyclosporine A was added to the reaction medium and their effect to the MLR reaction was examined.
Balb/c mouse was sacrificed and the spleen was removed. The spleen cells were suspended in RPMI 1640 to prepare a spleen cell suspension (1×10^7 cells/ml). The spleen cells were then cultured in mitomycin C-containing RPMI 1640 for 30 minutes (37° C.) so as to carry out the mitomycin treatment. On the other hand, C57BL/6 mouse was sacrificed and spleen cell suspension (1×10^6 cells/ml) was prepared using RPMI 1640.
In the wells of a 96-well flat-bottomed microplate, 100 μl of C57BL/6 mouse spleen cell suspension, 50 μl of mitomycin-treated Balb/c mouse spleen cell suspension and 50 μl of RPMI 1640 containing the test compound were placed and the cells were cultured for 72 hours (37° C., 5%CO2). As a control, 50 μl of RPMI 1640 was added. Eight hours before the termination of the culture, 2 μCi of [^3 H] thymidine was added. After termination of the culture, the cells were collected on a filter paper by using a cell harvester. After drying the filter paper, the filter paper was placed in a vial containing toluene-based scintillator and the radioactivity was measured by a liquid scintillation counter.
The suppression rate of MLR reaction was calculated according to the following equation: [formula]

[5] = molecular target: T2, μ receptor (Cavia porcellus, UniProt A0ACM8Q262); experiment: Antagonism of morphine (μ) in electrically stimulated isolated organ; assay type: cell-based, Guinea pig; settings: for concentration dependency of antagonistic activity: μ receptor, FIGS. 1 and 2; for Slope / γ / pA2 (50% Confidence Limit): μ, in vitro; for pA2 (50% Confidence Limit): NLI value is mean ± S.E.
T2 construct: antagonism of morphine
T2 sequence (A0ACM8Q262 1-400): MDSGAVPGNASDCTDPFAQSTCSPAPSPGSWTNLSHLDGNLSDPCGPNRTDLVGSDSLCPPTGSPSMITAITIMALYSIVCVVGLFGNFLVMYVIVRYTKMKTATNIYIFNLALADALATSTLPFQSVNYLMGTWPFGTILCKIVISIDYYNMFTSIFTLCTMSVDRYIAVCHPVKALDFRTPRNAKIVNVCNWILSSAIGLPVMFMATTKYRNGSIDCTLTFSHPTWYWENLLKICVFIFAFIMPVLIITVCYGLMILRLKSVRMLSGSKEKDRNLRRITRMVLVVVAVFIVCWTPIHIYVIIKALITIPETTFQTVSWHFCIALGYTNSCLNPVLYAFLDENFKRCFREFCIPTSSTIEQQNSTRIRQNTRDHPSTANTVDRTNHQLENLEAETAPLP
Procedure: as §1, §2, §3, §4, §5

[6] = test system: mouse spleen cells; experiment: Suppression of mitogen (ConA) reaction; assay type: cell-based, C57BL/6 mouse; settings: 48 hours, 3 cases, read-out: Suppression Rate of Mitogen Reaction; for inhibition at 1 µg/mL: 1 μg/ml; for inhibition at 10 µg/mL: 10 μg/ml; for inhibition at 50 µg/mL: 50 μg/ml
Procedure: If mouse spleen cells are cultured in vitro in the presence of concanavalin A (hereinafter referred to as "ConA" for short), the cells are divided and proliferated (mitogen reaction). In this system, the immunosuppressive agent of the present invention or cyclosporin A as a comparative example was added to the culture medium and the effects to the mitogen reaction were examined.
More particularly, C57BL/6 mouse was sacrificed and the spleen was removed. The spleen cells were suspended in RPMI 1640 culture medium containing 10% fetal calf serum (hereinafter referred to as "RPMI 1640" for short) so as to prepare a spleen cell suspension (5×10^6 cells/ml). In the wells of a flat-bottomed 96-well microplate, 100 μl of the suspension was placed and then 50 μl of RPMI 1640 containing ConA (4 μg/ml) as well as 50 μl of RPMI 1640 containing the test compound in the concentration shown in Table 2 were added. The cells were cultured for 48 hours (37° C. 5%CO2) As a control, 50 μl of RPMI 1640 was added. Eight hours before the termination of the culture, 2 μ Ci of [^3 H] thymidine was […], added. After termination of the culture, the cells were collected on a filter paper by using a cell harvester. After drying the filter paper, the filter paper was placed in a vial containing toluene-based scintillator and the radioactivity was measured by a liquid scintillation counter.
The suppression rate of mitogen reaction was calculated according to the following equation: [formula]

[7] = molecular target: T3, δ receptor (Mus musculus, UniProt P32300); experiment: Antagonism of DADLE (δ) in electrically stimulated isolated organ (vas deferens); assay type: cell-based; settings: for κ/δ / μ/δ: Ke selectivity ratio; for κ/δ / μ/δ / selectivity to the δ receptors with respect to κ receptors / selectivity to the δ receptors with respect to μ receptors: Table 1; for concentration dependency of antagonistic activity: δ receptor, FIGS. 1 and 2; for Slope / γ / Kb: δ, in vitro; for Kb: read-out: pA2 (50% Confidence Limit) (converted)
T3 construct: from tissue; host or cells: mouse vas deferens, isolated, electrically stimulated
T3 sequence (P32300 whole entry): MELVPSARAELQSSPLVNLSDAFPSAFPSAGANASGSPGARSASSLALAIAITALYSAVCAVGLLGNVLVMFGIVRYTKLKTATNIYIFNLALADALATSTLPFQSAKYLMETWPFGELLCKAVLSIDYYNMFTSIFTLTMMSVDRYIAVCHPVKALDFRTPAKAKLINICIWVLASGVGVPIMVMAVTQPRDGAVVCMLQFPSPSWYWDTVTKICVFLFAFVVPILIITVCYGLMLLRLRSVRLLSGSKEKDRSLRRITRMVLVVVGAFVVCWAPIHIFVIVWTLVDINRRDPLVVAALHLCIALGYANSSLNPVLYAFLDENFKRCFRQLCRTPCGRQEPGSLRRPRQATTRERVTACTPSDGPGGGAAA
Procedure: as §1, §2, §3, §4, §5

[8] = test system: graft versus host reaction; experiment: Suppression of graft versus host reaction; assay type: in vivo, mouse (BDF1; C57BL/6 spleen cells); settings: oral; for Suppression Rate of Graft versus Host Reaction: 100 mg/kg, once a day for 5 days, lymph node weight day 7, 4 cases, ** significance level < 0.02 (NTB), * < 0.05 (NTI); for graft versus host reaction: in words
Procedure: It is known that a graft versus host reaction occurs when spleen cells of a parent are transplanted to F1 mouse. In this system, NTI, NTB or cyclosporine A was administered to F1 mouse and the effects of these compounds on the graft versus host reaction were examined.
C57BL/6 mouse was sacrificed and the spleen was removed. Using phosphate buffered saline, a suspension of spleen cells (2×10^8 cells/ml) was prepared. To plantar of left hind leg of BDF1 mice, 50 μl of this spleen cell suspension was subcutaneously injected. From the day of this injection, each test compound was administered once a day for 5 days. The dose was 100 mg/kg and suspensions of the test compounds in 0.5% carboxymethyl cellulose (hereinafter referred to as "CMC") were orally administered. To the control group, 0.5% CMC alone was administered in the same manner. On the 7th day from the day of injection of the spleen cells, the mice were sacrificed and popliteal lymph nodes of right and left hind legs were removed and the weight of the lymph nodes was measured. The difference between the weight of the lymph nodes of the right and left hind legs was calculated and the difference was used as an index of the graft versus host reaction. The obtained results were analyzed by Student's t-test.
The suppression rate of graft versus host reaction was calculated according to the following equation: [formula]

| SMILES | concentration dependency of antagonistic activity [3] | Slope [3] | γ [3] | Kb [3] [nM] | inhibition at 1 µg/mL [4] [%] | inhibition at 10 µg/mL [4] [%] | inhibition at 50 µg/mL [4] [%] | MLR reaction [4] | concentration dependency of antagonistic activity [5] | Slope [5] | γ [5] | pA2 (50% Confidence Limit) [5] | inhibition at 1 µg/mL [6] [%] | inhibition at 10 µg/mL [6] [%] | inhibition at 50 µg/mL [6] [%] | κ/δ [7] | μ/δ [7] | selectivity to the δ receptors with respect to κ receptors [7] | selectivity to the δ receptors with respect to μ receptors [7] | concentration dependency of antagonistic activity [7] | further results |
| --- | --- | --- | --- | --- | --- | --- | --- | --- | --- | --- | --- | --- | --- | --- | --- | --- | --- | --- | --- | --- | --- |
| C=CC[C@@H]1/C=C(\C)C[C@H](C)C[C@H](OC)[C@H]2O[C@@](O)(C(=O)C(=O)N3CCCC[C@H]3C(=O)O[C@H](/C(C)=C/[C@@H]3CC[C@@H](O)[C@H](OC)C3)[C@H](C)[C@@H](O)CC1=O)[C@H](C)C[C@@H]2OC [FK-506] | – | – | – | – | – | – | – | – | – | – | – | – | – | – | – | – | – | – | – | – | toxicity to liver [1]: strong toxicity to liver; toxicity to kidney [2]: stronger toxicity to kidney than cyclosporine A |
| C=CCN1CC[C@]23c4c5ccc(O)c4O[C@H]2c2[nH]c4ccccc4c2C[C@@]3(O)[C@H]1C5 [NLI, naloxindole] | did not show dependency on the concentration | 0.105 | 0.149 | 141 | 22 | 95 | 100 | suppressed | did not show dependency on the concentration | -0.063 | -0.062 | 6.86 ± 0.01 | 12 | 56 | 100 | 407 | 251 | about 400 times | about 250 times | concentration-dependent | affinity to δ receptors ([7]; in words, NLI vs NTI): slightly inferior to NTI; Slope [7]: 1.066; γ [7]: 0.936; Kb [7]: 0.55 nM |
| Oc1ccc2c3c1O[C@H]1c4oc5ccccc5c4C[C@@]4(O)[C@@H](C2)N(CC2CC2)CC[C@]314 [NTB, naltrbenzofuran] | – | – | – | – | 5 | 81 | 100 | suppressed | – | – | – | – | 14 | 41 | 100 | – | – | – | – | – | Suppression Rate of Graft versus Host Reaction [8]: 44%; graft versus host reaction [8]: suppressed |
| Oc1ccc2c3c1O[C@H]1c4[nH]c5ccccc5c4C[C@@]4(O)[C@@H](C2)N(CC2CC2)CC[C@]314 [NTI, naltrindole] | increases proportionally with its concentration | 1.807 | 0.941 | 43.7 | 0 | 100 | 100 | suppressed | increases proportionally with its concentration | 1.330 | 0.791 | 7.42 (7.26-7.58) | 12 | 77 | 100 | 104 | 91 | about 100 times | about 100 times | increases proportionally with its concentration | Suppression Rate of Graft versus Host Reaction [8]: 47%; graft versus host reaction [8]: suppressed; Slope [7]: 1.354; γ [7]: 0.863; Kb [7]: 0.417 nM |
